Assay results from patent publication US9102678B2, “Compounds and methods for inhibiting mitotic progression” (Millennium Pharmaceuticals, Inc., priority 2004, dated 2015).

biological target: T1, recombinant murine Aurora A enzyme (Mus musculus, UniProt P97477); test: Aurora A DELFIA Kinase Assay; type: biochemical; conditions: mouse Aurora A, 250 μM ATP; threshold less than or equal to 100 nM; read-out: IC50
T1 construct: hexahistidine (His6) (N); made in house; host or cells: insect cells, baculovirus (Bac-to-Bac, Invitrogen)
Text: Recombinant mouse Aurora A with an amino-terminus hexahistidine tag (His-Aurora A) was expressed using a standard baculovirus vector and insect cell expression system (Bac-to-Bac®, Invitrogen).
Soluble, recombinant mouse Aurora A was purified from insect cells using Ni-NTA agarose (Qiagen) as described by the manufacturer and further purified over an S75 size exclusion column (Amersham Pharmacia Biotech).
Aurora A DELFIA® Kinase Assay
The enzymatic reaction mixture, with and without Aurora inhibitors, was incubated for 15 minutes at room temperature before termination with 100 μL of stop buffer (1% BSA, 0.05% Surfact-AMPS-20, and 100 mM EDTA). A total of 100 μL of the enzyme reaction mixture was transferred to wells of a Neutravidin-coated 96-well plate (Pierce) and incubated at room temperature for 30 minutes. The wells were washed with wash buffer (25 mM Tris, 150 mM sodium chloride, and 0.1% Tween 20) and incubated for 1 hour with 100 μL of antibody reaction mixture containing 1% BSA, 0.05% Surfact-AMPS-20, anti-phospho-PKA rabbit polyclonal antibody (1:2000, New England Biolabs), and europium labeled anti-rabbit IgG (1:2000, Perkin Elmer). The wells were washed and then the bound europium was liberated using 100 μL of Enhancement Solution (Perkin Elmer). Quantification of europium was done using a Wallac™ EnVision (Perkin Elmer).

T1 sequence (P97477 whole entry): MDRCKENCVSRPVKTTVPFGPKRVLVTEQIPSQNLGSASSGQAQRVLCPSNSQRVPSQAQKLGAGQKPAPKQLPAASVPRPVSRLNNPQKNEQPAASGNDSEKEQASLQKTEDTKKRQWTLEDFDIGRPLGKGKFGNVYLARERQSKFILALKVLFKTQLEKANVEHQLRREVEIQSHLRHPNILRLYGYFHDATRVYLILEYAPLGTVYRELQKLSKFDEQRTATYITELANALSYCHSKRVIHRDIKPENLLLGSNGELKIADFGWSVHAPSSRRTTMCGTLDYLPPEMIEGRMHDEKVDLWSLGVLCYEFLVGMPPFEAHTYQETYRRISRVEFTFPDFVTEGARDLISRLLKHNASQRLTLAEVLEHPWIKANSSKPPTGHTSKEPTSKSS

| Compound | IC50 |
| --- | --- |
| Cc1cc(NS(=O)(=O)c2ccc(Nc3ncc4c(n3)-c3ccc(Cl)cc3C(c3ccccc3Cl)=NC4)cc2)no1 [Compound I-69, 4-[9-Chloro-7-(2-chloro-phenyl)-5H-benzo[c]pyrimido[4,5-e]azepin-2-ylamino]-N-(5-methyl-isoxazol-3-yl)-benzenesulfonamide] | ≤ 100 nM |
| COc1ccc(Nc2ncc3c(n2)-c2ccc(Cl)cc2C(c2ccccc2Cl)=NC3)cc1OC [Compound I-73, [9-Chloro-7-(2-chloro-phenyl)-5H-benzo[c]pyrimido[4,5-e]azepin-2-yl]-(3,4-dimethoxy-phenyl)-amine] | ≤ 100 nM |
| O=C(O)c1ccc(Nc2ncc3c(n2)-c2ccc(Cl)cc2C(c2ccccc2Cl)=NC3)cc1O [Compound I-86, 4-[9-Chloro-7-(2-chloro-phenyl)-5H-benzo[c]pyrimido[4,5-e]azepin-2-ylamino]-2-hydroxy-benzoic acid] | ≤ 100 nM |
| COc1ccc2c(c1)C(c1ccccc1F)=NCc1cnc(Nc3ccc(C(=O)N4CCC(N(C)C)C4)cc3)nc1-2 (stereo not drawn) [Compound I-93, (3-Dimethylamino-pyrrolidin-1-yl)-{4-[7-(2-fluoro-phenyl)-9-methoxy-5H-benzo[c]pyrimido[4,5-e]azepin-2-ylamino]-phenyl}-methanone] | ≤ 100 nM |
| CN(C)C1CN(C(=O)c2ccc(Nc3ncc4c(n3)-c3ccc(Cl)cc3C(c3ccccc3F)=NC4)cc2)C1 [Compound I-98, {4-[9-Chloro-7-(2-fluoro-phenyl)-5H-benzo[c]pyrimido[4,5-e]azepin-2-ylamino]-phenyl}-(3-dimethylamino-azetidin-1-yl)-methanone] | ≤ 100 nM |
| CN1CCC(N(C)C(=O)c2ccc(Nc3ncc4c(n3)-c3ccc(Cl)cc3C(c3ccccc3F)=NC4)cc2)C1 (stereo not drawn) [Compound I-99, 4-[9-Chloro-7-(2-fluoro-phenyl)-5H-benzo[c]pyrimido[4,5-e]azepin-2-ylamino]-N-methyl-N-(1-methyl-pyrrolidin-3-yl)-benzamide] | ≤ 100 nM |
| CN(C)C1CCN(C(=O)c2ccc(Nc3ncc4c(n3)-c3ccc(Cl)cc3C(c3ccccc3F)=NC4)cc2)C1 (stereo not drawn) [Compound I-100, {4-[9-Chloro-7-(2-fluoro-phenyl)-5H-benzo[c]pyrimido[4,5-e]azepin-2-ylamino]-phenyl}-(3-dimethylamino-pyrrolidin-1-yl)-methanone] | ≤ 100 nM |
| CNC1CCN(C(=O)c2ccc(Nc3ncc4c(n3)-c3ccc(Cl)cc3C(c3ccccc3F)=NC4)cc2)C1 (stereo not drawn) [Compound I-102, {4-[9-Chloro-7-(2-fluoro-phenyl)-5H-benzo[c]pyrimido[4,5-e]azepin-2-ylamino]-phenyl}-(3-methylamino-pyrrolidin-1-yl)-methanone] | ≤ 100 nM |
| NC1CCN(C(=O)c2ccc(Nc3ncc4c(n3)-c3ccc(Cl)cc3C(c3ccccc3F)=NC4)cc2)C1 (stereo not drawn) [Compound I-103, (3-Amino-pyrrolidin-1-yl)-{4-[9-chloro-7-(2-fluoro-phenyl)-5H-benzo[c]pyrimido[4,5-e]azepin-2-ylamino]-phenyl}-methanone] | ≤ 100 nM |
| CC1CN(C(=O)c2ccc(Nc3ncc4c(n3)-c3ccc(Cl)cc3C(c3ccccc3F)=NC4)cc2)CC(C)N1 (stereo not drawn) [Compound I-111, {4-[9-Chloro-7-(2-fluoro-phenyl)-5H-benzo[c]pyrimido[4,5-e]azepin-2-ylamino]-phenyl}-(3,5-dimethyl-piperazin-1-yl)-methanone] | ≤ 100 nM |
| O=C(O)C1CCCN1C(=O)c1ccc(Nc2ncc3c(n2)-c2ccc(Cl)cc2C(c2ccccc2F)=NC3)cc1 (stereo not drawn) [Compound I-112, 1-{4-[9-Chloro-7-(2-fluoro-phenyl)-5H-benzo[c]pyrimido[4,5-e]azepin-2-ylamino]-benzoyl}-pyrrolidine-2-carboxylic acid] | ≤ 100 nM |
| CC1CN(C(=O)c2ccc(Nc3ncc4c(n3)-c3ccc(Cl)cc3C(c3ccccc3F)=NC4)cc2)CCN1 (stereo not drawn) [Compound I-113, {4-[9-Chloro-7-(2-fluoro-phenyl)-5H-benzo[c]pyrimido[4,5-e]azepin-2-ylamino]-phenyl}-(3-methyl-piperazin-1-yl)-methanone] | ≤ 100 nM |
| CN(CCCN)C(=O)c1ccc(Nc2ncc3c(n2)-c2ccc(Cl)cc2C(c2ccccc2F)=NC3)cc1 [Compound I-117, N-(3-Amino-propyl)-4-[9-chloro-7-(2-fluoro-phenyl)-5H-benzo[c]pyrimido[4,5-e]azepin-2-ylamino]-N-methyl-benzamide] | ≤ 100 nM |
| CN1CCC(N(C)C(=O)c2ccc(Nc3ncc4c(n3)-c3ccc(Cl)cc3C(c3ccccc3F)=NC4)cc2)CC1 [Compound I-128, 4-[9-Chloro-7-(2-fluoro-phenyl)-5H-benzo[c]pyrimido[4,5-e]azepin-2-ylamino]-N-methyl-N-(1-methyl-piperidin-4-yl)-benzamide] | ≤ 100 nM |
| CNCCCNC(=O)c1ccc(Nc2ncc3c(n2)-c2ccc(Cl)cc2C(c2ccccc2F)=NC3)cc1 [Compound I-130, 4-[9-Chloro-7-(2-fluoro-phenyl)-5H-benzo[c]pyrimido[4,5-e]azepin-2-ylamino]-N-(3-methylamino-propyl)-benzamide] | ≤ 100 nM |
| O=C(O)c1ccc(Nc2ncc3c(n2)-c2ccc(Cl)cc2C(c2c(F)cccc2F)=NC3)cc1 [Compound I-135, 4-[9-Chloro-7-(2,6-difluoro-phenyl)-5H-benzo[c]pyrimido[4,5-e]azepin-2-ylamino]-benzoic acid] | ≤ 100 nM |
| CN1CCN(C(=O)Cc2ccc(Nc3ncc4c(n3)-c3ccc(Cl)cc3C(c3ccccc3F)=NC4)cc2)CC1 [Compound I-145, 2-{4-[9-Chloro-7-(2-fluoro-phenyl)-5H-benzo[c]pyrimido[4,5-e]azepin-2-ylamino]-phenyl}-1-(4-methyl-piperazin-1-yl)-ethanone] | ≤ 100 nM |
| O=C(NCCc1c[nH]cn1)c1ccc(Nc2ncc3c(n2)-c2ccc(Cl)cc2C(c2ccccc2F)=NC3)cc1 [Compound I-147, 4-[9-Chloro-7-(2-fluoro-phenyl)-5H-benzo[c]pyrimido[4,5-e]azepin-2-ylamino]-N-[2-(1H-imidazol-4-yl)-ethyl]-benzamide] | ≤ 100 nM |

Continued, values first:

| IC50 | Compound |
| --- | --- |
| ≤ 100 nM | Cc1ccccc1C1=NCc2cnc(Nc3ccc(C(=O)NCCN4CCOCC4)cc3)nc2-c2ccc(Cl)cc21 [Compound I-31, 4-(9-Chloro-7-o-tolyl-5H-benzo[c]pyrimido[4,5-e]azepin-2-ylamino)-N-(2-morpholin-4-yl-ethyl)-benzamide] |
| ≤ 100 nM | COc1ccccc1C1=NCc2cnc(Nc3ccc(C(=O)NCCCN4CCOCC4)cc3)nc2-c2ccc(Cl)cc21 [Compound I-32, 4-[9-Chloro-7-(2-methoxy-phenyl)-5H-benzo[c]pyrimido[4,5-e]azepin-2-ylamino]-N-(3-morpholin-4-yl-propyl)-benzamide] |
| ≤ 100 nM | O=C(O)c1ccc(Nc2ncc3c(n2)-c2ccc(Cl)cc2C(c2ccccc2F)=NC3)cc1 [Compound I-52, 4-[9-Chloro-7-(2-fluoro-phenyl)-5H-benzo[c]pyrimido[4,5-e]azepin-2-ylamino]-benzoic acid] |
| ≤ 100 nM | O=C(O)c1ccc(Nc2ncc3c(n2)-c2ccc(Cl)cc2C(c2ccccc2Cl)=NC3)cc1 [Compound I-53, 4-[9-Chloro-7-(2-chloro-phenyl)-5H-benzo[c]pyrimido[4,5-e]azepin-2-ylamino]-benzoic acid] |
| ≤ 100 nM | Cc1ccccc1C1=NCc2cnc(Nc3ccc(C(=O)O)cc3)nc2-c2ccc(Cl)cc21 [Compound I-54, 4-(9-Chloro-7-o-tolyl-5H-benzo[c]pyrimido[4,5-e]azepin-2-ylamino) -benzoic acid] |
| ≤ 100 nM | COc1ccccc1C1=NCc2cnc(Nc3ccc(C(=O)O)cc3)nc2-c2ccc(Cl)cc21 [Compound I-55, 4-[9-Chloro-7-(2-methoxy-phenyl)-5H-benzo[c]pyrimido[4,5-e]azepin-2-ylamino]-benzoic acid] |
| ≤ 100 nM | O=C(O)c1ccc(Nc2ncc3c(n2)-c2ccc(F)cc2C(c2ccccc2F)=NC3)cc1 [Compound I-57, 4-[9-Fluoro-7-(2-fluoro-phenyl)-5H-benzo[c]pyrimido[4,5-e]azepin-2-ylamino]-benzoic acid] |
| ≤ 100 nM | Cc1ccc2c(c1)C(c1ccccc1F)=NCc1cnc(Nc3ccc(C(=O)O)cc3)nc1-2 [Compound I-58, 4-[7-(2-Fluoro-phenyl)-9-methyl-5H-benzo[c]pyrimido[4,5-e]azepin-2-ylamino]-benzoic acid] |
| ≤ 100 nM | NC(=O)c1ccc(Nc2ncc3c(n2)-c2ccc(Cl)cc2C(c2ccccc2Cl)=NC3)cc1 [Compound I-63, 4-[9-Chloro-7-(2-chloro-phenyl)-5H-benzo[c]pyrimido[4,5-e]azepin-2-ylamino]-benzamide] |
| ≤ 100 nM | O=C(O)Cc1cccc(Nc2ncc3c(n2)-c2ccc(Cl)cc2C(c2ccccc2Cl)=NC3)c1 [Compound I-65, {3-[9-Chloro-7-(2-chloro-phenyl)-5H-benzo[c]pyrimido[4,5-e]azepin-2-ylamino]-phenyl}-acetic acid] |
| ≤ 100 nM | NC(=O)Cc1cccc(Nc2ncc3c(n2)-c2ccc(Cl)cc2C(c2ccccc2Cl)=NC3)c1 [Compound I-66, 2-{3-[9-Chloro-7-(2-chloro-phenyl)-5H-benzo[c]pyrimido[4,5-e]azepin-2-ylamino]-phenyl}-acetamide] |
| ≤ 100 nM | O=S(=O)(O)c1ccc(Nc2ncc3c(n2)-c2ccc(Cl)cc2C(c2ccccc2F)=NC3)cc1 [Compound I-67, 4-[9-Chloro-7-(2-fluoro-phenyl)-5H-benzo[c]pyrimido[4,5-e]azepin-2-ylamino]-benzenesulfonic acid] |
